Data on 2 compounds can be found in publication PMC12073402, “A Selective MAP3K1 Inhibitor Facilitates Discovery of NPM1 as a Member of the Network” (Molecules, 2025).

Data set [1] deals with pancreatic cancer mouse model. Details: method as in PMID 34098465. The following applies: by itself and in combination with gemcitabine; cited from earlier work.
Data set [2] can be described thus: Metabolic stability in human liver microsomes (LC-MS/MS). It is filed as in vitro ADME. The following applies: Species Human. The source says: An approach to address this issue of bioavailability is to improve metabolic stability. The para-position of the phenyl ring in acetanilide moieties is susceptible to oxidation. […] To test this, we altered the substitution pattern on the phenyl ring by moving the F atom from the ortho in 84 to the para position (Figure 1A). The regioisomer 51-106, resulting from the above change, was synthesized by coupling 3-(1-methyl-1H-pyrazol-4-yl)quinoxalin-6-amine (1) with freshly prepared 1-fluoro-4-isocyanato-2-(trifluoromethyl)benzene in dichloromethane (Scheme 1). To determine the metabolic stability of 51-106, we incubated 51-106 and analog 84 with human (pooled male and female) liver microsomes and monitored their stability using liquid chromatography–tandem mass spectrometry.
The in vitro metabolic stability of 51-106 was determined using human liver […] (XenoTech, LLC; Kansas City, KS, USA), following previously reported methods. […] Sample analysis was performed by liquid chromatography–tandem mass spectrometry (SCIEX QTRAP 4000 LC-MS/MS System, SCIEX, Framingham, MA, USA).

The test system of data set [3] is TNFα-induced IKKβ-mediated NFκB activation. Set-up: method as in PMID 34098465. The following applies: analog 84 over the earlier IKKβ inhibitor; cited from earlier work.
On the set-up of data set [4]: method as in PMID 34098465. The following applies: cited from earlier work.
In data set [5] the test system is NPM1 T199 phosphorylation. Put plainly: Western blot of NPM1 T199 phosphorylation in PANC-1 cells. It is filed as cell-based. Conditions: 2 h. The source says:
We further investigated changes in NPM1 phosphorylation in our dataset. Of the NPM1 phosphorylation sites quantified, four sites had significant dose-dependent decreases upon 51-106 treatment: S137, T199, S222, and S227. Only one of these phosphorylation sites, T199, has a commercially available antibody. Importantly, T199 phosphorylation plays an essential role in NPM1 function, as it is required for localization of NPM1 to sites of DNA double-stranded breaks, where it colocalizes with other DNA repair proteins such as γH2AX and RAD51 [38].
Cells were washed with cold 1× PBS and lysed in Radioimmunoprecipitation assay (RIPA) buffer (Cat# 89901; Thermo Fisher Scientific), sodium orthovanadate (Na3VO4) (Cat# 567540-5GM; Sigma-Aldrich; St. Louis, MO, USA), sodium fluoride (NaF) (Cat# 201154-5G, >99% purity; Sigma-Aldrich), β-glycerophosphate (Cat# G9422-10G; Sigma-Aldrich), and 1 mM phenylmethylsulfonyl fluoride (Cat# 10837091001; Sigma Aldrich). The samples were incubated on ice for 30 min, vortexed at 10 min intervals, and centrifuged at 14,000× g for 10 min at 4 °C. The supernatant was collected, and protein was quantified using the BCA Protein Assay kit (Cat# 23225; Thermo Fisher Scientific). […]

Structures are written as SMILES. Like-named read-outs stand apart in the source and are kept apart here.

As for `Cn1cc(-c2cnc3ccc(NC(=O)Nc4cccc(C(F)(F)F)c4F)cc3n2)cn1` [Analog 84], the tumor growth entry in data set [1] was “inhibited tumor growth”. The “T1/2 (half-life) in human liver microsomes” value in data set [2] was ~ 13 h. Further, in data set [2] (human liver microsomes), the “Hepatic Extraction Ratio (E)” value is reported as 0.09. Moreover, the half-life in data set [2] (both sexes, human, liver microsomes, read-out: T1/2 (half-life) in human liver microsomes (converted)) was 13.6 h. Moreover, the improved potency in data set [3] is listed as ~ 4 fold. Moreover, in data set [4] (20 mg/kg, Oral), the “AUC0-∞” value is 8008 ± 3696 ng·h/mL, the AUClast is 7986 ± 3675 ng·h/mL, the Cmax is 700 ± 320 ng/mL and the “MRT 0-∞” value is 6.3 ± 0.5 h. For the same compound, in data set [4] (20 mg/kg, Oral), the T1/2 was 2.5 ± 0.3 h and the time of peak concentration (Tmax) was 6.0 h. Besides, in data set [4] (20 mg/kg, Oral, listed as 84), the “Bioavailability (%F)” value was 17.6%. Moreover, the “Bioavailability (%F)” value in data set [4] (20 mg/kg, Oral, listed as analog 84) was around 17%. Also, the improved bioavailability in data set [4] (analog 84 over the earlier IKKβ inhibitor) is reported as ~ 5.7 fold.

With `CN[C@@H]1C[C@H]2O[C@@](C)([C@@H]1OC)n1c3ccccc3c3c4c(c5c6ccccc6n2c5c31)C(=O)NC4` [Staurosporine, reference compound], the “NPM1 T199 phosphorylation (Western blot)” value in data set [5] is on record as “Decreased phosphorylation in NPM1 T199”.

The Cmax is the maximum level reached in the sampled fluid or tissue. As a reminder, the Tmax is the time at which the peak concentration occurs.
